Legend:
[1] = target: Nitric oxide synthase 1 (Rattus norvegicus, UniProt P29476); format: tissue-based, Cerebellum; further: in other assays of this panel Not Active means under 50% inhibition at 10 µM
[2] = DRUGMATRIX: Glutamate, Kainate radioligand binding (ligand: [3H] Kainic acid); format: cell membranes, Rattus norvegicus, Wistar, Brain, Membrane; details: Not Active = under 50% inhibition at 10 µM
[3] = target: T1, Cytochrome P450 1A2 (Homo sapiens, UniProt P05177); further: in other assays of this panel Not Active means under 50% inhibition at 10 µM
T1 sequence (P05177 whole entry): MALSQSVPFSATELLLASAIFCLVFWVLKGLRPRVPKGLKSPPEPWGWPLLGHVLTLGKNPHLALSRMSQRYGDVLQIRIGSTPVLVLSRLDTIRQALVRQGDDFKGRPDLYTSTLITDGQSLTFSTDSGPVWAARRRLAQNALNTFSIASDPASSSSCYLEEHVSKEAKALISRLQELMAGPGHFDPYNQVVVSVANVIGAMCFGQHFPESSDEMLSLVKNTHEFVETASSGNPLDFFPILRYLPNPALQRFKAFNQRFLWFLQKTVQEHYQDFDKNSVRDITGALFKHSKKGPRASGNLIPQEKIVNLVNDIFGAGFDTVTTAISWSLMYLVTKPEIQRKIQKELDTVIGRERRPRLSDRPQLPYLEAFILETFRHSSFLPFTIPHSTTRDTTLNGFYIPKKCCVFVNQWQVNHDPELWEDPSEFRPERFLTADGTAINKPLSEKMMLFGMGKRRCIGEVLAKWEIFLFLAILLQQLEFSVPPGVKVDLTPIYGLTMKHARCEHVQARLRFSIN

[4] = target: T2, Progesterone receptor (Bos taurus, UniProt Q690N0); assay: DRUGMATRIX: Progesterone radioligand binding (ligand: [3H] R-5020); format: tissue-based, Uterus; details: Not Active = under 50% inhibition at 10 µM; for Ki: read-out: Ki
T2 sequence (Q690N0 whole entry): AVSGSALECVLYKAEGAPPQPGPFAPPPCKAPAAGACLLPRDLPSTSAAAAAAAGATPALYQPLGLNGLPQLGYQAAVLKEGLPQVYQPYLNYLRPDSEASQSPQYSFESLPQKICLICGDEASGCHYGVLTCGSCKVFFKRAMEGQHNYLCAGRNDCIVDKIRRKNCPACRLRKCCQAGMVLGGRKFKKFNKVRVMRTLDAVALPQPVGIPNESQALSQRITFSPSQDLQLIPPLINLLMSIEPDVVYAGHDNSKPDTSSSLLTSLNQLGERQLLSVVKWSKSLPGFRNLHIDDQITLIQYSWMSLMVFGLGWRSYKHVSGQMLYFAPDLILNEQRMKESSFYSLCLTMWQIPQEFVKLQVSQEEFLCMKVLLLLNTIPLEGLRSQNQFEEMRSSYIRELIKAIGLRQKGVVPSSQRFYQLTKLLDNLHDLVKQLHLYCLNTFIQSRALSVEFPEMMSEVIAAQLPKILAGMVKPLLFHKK

[5] = target: cGMP-specific 3',5'-cyclic phosphodiesterase (Homo sapiens, UniProt O76074); assay: DRUGMATRIX: Phosphodiesterase PDE5 enzyme inhibition (substrate: [3H]cGMP + cGMP); format: tissue-based; details: platelet; Not Active = under 50% inhibition at 10 µM
[6] = target: Cytochrome P450 3A4 (Homo sapiens, UniProt P08684); details: bti-tn-5b1-4; further: in other assays of this panel Not Active means under 50% inhibition at 10 µM
Chain of Cytochrome P450 3A4 (P08684 whole entry): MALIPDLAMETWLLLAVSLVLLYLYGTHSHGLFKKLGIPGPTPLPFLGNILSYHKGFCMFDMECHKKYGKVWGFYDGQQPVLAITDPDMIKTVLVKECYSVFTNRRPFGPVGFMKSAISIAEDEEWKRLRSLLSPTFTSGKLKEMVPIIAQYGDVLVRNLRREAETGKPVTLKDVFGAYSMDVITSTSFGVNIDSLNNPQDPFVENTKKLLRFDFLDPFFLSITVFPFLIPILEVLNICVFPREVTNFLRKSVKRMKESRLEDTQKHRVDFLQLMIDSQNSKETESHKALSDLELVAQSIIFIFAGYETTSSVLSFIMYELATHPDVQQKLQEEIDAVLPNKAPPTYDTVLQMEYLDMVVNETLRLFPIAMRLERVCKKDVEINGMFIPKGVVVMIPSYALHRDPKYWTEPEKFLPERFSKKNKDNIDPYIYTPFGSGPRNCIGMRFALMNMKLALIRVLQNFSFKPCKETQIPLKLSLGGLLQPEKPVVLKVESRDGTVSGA

[7] = target: T3, Androgen receptor (Rattus norvegicus, UniProt P15207); further: in other assays of this panel Not Active means under 50% inhibition at 10 µM
T3 sequence (P15207 whole entry): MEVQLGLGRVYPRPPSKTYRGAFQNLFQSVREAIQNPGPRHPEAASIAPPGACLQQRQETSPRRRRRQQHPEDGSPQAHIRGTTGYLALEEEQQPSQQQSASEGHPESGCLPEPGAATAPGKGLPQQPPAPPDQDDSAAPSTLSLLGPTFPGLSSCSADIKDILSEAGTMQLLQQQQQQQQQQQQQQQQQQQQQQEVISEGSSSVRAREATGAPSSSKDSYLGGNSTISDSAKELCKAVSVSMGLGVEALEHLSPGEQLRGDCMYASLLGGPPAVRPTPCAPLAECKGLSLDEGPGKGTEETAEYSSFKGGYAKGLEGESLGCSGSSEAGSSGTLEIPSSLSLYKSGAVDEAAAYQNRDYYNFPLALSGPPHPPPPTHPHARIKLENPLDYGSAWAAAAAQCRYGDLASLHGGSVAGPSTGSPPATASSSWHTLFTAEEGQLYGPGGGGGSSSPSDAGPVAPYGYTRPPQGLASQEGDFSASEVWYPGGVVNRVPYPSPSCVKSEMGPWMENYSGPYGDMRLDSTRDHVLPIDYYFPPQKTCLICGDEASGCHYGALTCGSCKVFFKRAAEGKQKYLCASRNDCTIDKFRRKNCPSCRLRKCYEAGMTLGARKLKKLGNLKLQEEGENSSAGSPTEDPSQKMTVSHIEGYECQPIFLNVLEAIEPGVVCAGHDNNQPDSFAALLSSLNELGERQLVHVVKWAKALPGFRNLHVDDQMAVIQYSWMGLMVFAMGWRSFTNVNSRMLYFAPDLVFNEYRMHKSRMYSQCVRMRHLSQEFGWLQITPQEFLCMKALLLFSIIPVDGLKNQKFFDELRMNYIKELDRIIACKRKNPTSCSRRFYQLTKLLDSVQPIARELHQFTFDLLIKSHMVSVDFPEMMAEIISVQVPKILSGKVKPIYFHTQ

[8] = target: Cytochrome P450 2C19 (Homo sapiens, UniProt P33261); further: in other assays of this panel Not Active means under 50% inhibition at 10 µM
Chain of Cytochrome P450 2C19 (P33261 whole entry): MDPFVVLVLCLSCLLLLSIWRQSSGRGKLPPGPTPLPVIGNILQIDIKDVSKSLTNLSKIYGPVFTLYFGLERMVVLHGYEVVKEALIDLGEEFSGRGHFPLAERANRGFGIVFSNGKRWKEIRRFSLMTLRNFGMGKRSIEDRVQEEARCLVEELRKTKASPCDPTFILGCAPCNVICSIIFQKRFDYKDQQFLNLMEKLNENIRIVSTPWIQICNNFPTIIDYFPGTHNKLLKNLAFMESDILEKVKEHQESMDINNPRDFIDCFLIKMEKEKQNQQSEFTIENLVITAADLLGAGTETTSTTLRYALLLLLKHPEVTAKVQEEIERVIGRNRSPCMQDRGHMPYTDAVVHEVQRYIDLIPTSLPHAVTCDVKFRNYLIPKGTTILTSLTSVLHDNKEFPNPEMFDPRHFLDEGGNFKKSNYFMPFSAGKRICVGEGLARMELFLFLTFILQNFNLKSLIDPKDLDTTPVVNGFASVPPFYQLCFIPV

[9] = target: Cytochrome P450 2D6 (Homo sapiens, UniProt P10635); further: in other assays of this panel Not Active means under 50% inhibition at 10 µM
Chain of Cytochrome P450 2D6 (P10635 whole entry): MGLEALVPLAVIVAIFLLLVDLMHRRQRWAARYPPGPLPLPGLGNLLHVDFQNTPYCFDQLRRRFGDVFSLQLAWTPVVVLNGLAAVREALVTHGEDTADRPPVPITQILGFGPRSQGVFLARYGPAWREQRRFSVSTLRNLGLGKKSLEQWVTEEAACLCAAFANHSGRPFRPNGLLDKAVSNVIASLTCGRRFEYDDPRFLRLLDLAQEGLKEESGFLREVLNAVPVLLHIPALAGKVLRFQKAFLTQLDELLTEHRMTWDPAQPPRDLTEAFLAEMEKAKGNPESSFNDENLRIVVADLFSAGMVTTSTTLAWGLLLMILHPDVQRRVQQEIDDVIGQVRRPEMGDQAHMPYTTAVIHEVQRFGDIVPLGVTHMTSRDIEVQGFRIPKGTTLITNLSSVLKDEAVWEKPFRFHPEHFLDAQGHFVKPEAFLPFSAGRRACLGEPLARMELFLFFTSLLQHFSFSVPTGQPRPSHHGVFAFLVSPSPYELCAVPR

[10] = target: Cytochrome P450 2C9 (Homo sapiens, UniProt P11712); further: in other assays of this panel Not Active means under 50% inhibition at 10 µM
Chain of Cytochrome P450 2C9 (P11712 whole entry): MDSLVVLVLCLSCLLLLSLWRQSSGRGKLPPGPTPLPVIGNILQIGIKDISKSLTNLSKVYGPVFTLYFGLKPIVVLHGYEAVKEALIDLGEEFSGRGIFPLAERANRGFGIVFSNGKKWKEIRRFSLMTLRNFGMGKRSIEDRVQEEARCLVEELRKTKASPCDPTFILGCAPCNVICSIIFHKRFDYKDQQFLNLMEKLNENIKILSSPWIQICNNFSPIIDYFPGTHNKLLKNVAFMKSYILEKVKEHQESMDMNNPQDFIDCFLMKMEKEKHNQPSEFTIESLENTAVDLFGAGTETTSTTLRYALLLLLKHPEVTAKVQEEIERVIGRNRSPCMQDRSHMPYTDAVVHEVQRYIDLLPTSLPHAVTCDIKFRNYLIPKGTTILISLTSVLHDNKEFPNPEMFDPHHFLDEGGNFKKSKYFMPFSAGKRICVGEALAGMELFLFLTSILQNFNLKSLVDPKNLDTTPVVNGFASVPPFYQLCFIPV

[11] = target: T3, Androgen receptor; remark: listed apart in the source

Chain of Nitric oxide synthase 1 (P29476 whole entry): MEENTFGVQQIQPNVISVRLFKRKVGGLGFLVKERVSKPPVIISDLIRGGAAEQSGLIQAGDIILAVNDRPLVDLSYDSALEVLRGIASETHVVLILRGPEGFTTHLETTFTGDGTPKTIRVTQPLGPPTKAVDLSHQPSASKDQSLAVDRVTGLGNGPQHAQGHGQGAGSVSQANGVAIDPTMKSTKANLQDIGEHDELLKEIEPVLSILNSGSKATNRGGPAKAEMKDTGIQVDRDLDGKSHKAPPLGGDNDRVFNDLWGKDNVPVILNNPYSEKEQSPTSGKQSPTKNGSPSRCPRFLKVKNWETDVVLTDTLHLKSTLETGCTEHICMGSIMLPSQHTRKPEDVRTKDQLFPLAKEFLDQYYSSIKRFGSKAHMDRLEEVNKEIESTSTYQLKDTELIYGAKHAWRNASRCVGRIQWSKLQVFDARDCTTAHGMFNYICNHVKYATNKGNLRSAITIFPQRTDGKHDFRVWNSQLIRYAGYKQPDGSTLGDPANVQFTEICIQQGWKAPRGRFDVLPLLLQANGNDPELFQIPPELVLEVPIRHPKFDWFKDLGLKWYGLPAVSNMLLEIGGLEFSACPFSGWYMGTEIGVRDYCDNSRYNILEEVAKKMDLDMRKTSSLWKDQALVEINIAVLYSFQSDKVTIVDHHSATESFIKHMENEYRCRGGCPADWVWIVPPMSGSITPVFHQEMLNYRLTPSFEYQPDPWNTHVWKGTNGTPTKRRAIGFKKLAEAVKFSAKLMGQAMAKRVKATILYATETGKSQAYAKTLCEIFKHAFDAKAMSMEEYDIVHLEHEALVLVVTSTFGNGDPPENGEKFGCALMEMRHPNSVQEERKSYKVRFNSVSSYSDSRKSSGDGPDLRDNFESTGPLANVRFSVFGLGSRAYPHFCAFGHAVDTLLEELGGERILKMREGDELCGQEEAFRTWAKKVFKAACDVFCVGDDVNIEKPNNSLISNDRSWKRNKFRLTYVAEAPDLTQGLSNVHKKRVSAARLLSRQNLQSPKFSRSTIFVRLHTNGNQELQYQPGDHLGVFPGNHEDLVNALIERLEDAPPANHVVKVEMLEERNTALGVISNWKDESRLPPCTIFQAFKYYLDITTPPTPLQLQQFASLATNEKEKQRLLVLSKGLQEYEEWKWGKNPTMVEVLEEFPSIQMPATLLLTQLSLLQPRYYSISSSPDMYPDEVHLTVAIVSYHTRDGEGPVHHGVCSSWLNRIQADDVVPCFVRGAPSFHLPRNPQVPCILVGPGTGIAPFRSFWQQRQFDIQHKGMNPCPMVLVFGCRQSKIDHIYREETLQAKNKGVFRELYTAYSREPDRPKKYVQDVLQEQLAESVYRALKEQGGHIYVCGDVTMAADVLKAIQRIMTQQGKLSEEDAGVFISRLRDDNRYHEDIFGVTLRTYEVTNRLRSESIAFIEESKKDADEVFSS

Compound	IC50 [1]	IC50 [2]	Ki [2]	IC50 [3] [nM]	IC50 [4]	IC50 [5]	IC50 [6]	Ki [6]	IC50 [7]	IC50 [8] [nM]	IC50 [9] [nM]	IC50 ([4]; read-out: IC50) [nM]	Ki [4] [nM]	IC50 [10] [nM]	IC50 [11] [nM]	Ki [11] [nM]
Cc1ccc2cc3c(ccc4ccccc43)c3c2c1CC3 [3-METHYLCHOLANTHRENE]	Not Active	Not Active	Not Active	300	Not Active	Not Active	Not Active	Not Active	–	–	–	–	–	–	–	–
c1ccc2c(c1)c1cccc3ccc4cccc2c4c31 [BENZO[E]PYRENE]	Not Active	Not Active	Not Active	100	Not Active	Not Active	Not Active	Not Active	Not Active	–	–	–	–	–	–	–
CC(NC(C)(C)C)C(=O)c1cccc(Cl)c1 (configuration not stated) [BUPROPION]	Not Active	Not Active	Not Active	–	Not Active	Not Active	Not Active	Not Active	–	2000	–	–	–	–	–	–
Cc1ccc(-c2cc(C(F)(F)F)nn2-c2ccc(S(N)(=O)=O)cc2)cc1 [CELECOXIB]	Not Active	Not Active	Not Active	–	–	Not Active	Not Active	Not Active	Not Active	–	1000	18100	2360	–	–	–
Cc1cc(C(C#N)c2ccc(Cl)cc2)c(Cl)cc1NC(=O)c1cc(I)cc(I)c1O (configuration not stated) [CLOSANTEL]	Not Active	Not Active	Not Active	–	Not Active	Not Active	–	–	–	–	–	–	–	2000	–	–
CC(C)[C@@]1(NC(=O)[C@@H]2C[C@@H]3c4cccc5[nH]cc(c45)C[C@H]3N(C)C2)O[C@@]2(O)[C@@H]3CCCN3C(=O)[C@H](Cc3ccccc3)N2C1=O.CS(=O)(=O)O [DIHYDROERGOCRISTINE MESYLATE]	Not Active	Not Active	Not Active	–	Not Active	Not Active	–	–	–	3000	–	–	–	3000	–	–
C[C@]12CC[C@@H]3c4ccc(O)cc4CC[C@H]3[C@@H]1CCC2=O [ESTRONE]	Not Active	Not Active	Not Active	–	–	Not Active	–	–	–	–	–	16100	2100	–	11600	7740
CCCCN1CCCC[C@H]1C(=O)Nc1c(C)cccc1C [LEVOBUPIVACAINE]	Not Active	Not Active	Not Active	–	Not Active	Not Active	Not Active	Not Active	Not Active	–	196	–	–	–	–	–
CCCCc1nc(Cl)c(CO)n1Cc1ccc(-c2ccccc2-c2nnn[nH]2)cc1 [LOSARTAN]	Not Active	Not Active	Not Active	–	Not Active	Not Active	Not Active	Not Active	–	–	–	–	–	2880	–	–
C1CCC(C(CC2CCCCN2)C2CCCCC2)CC1 (configuration not stated) [PERHEXILINE]	Not Active	Not Active	Not Active	–	Not Active	Not Active	Not Active	Not Active	Not Active	–	941	–	–	–	–	–

From ChEMBL document CHEMBL1909046, “DrugMatrix in vitro pharmacology data”
